Here are results for 24 compounds from patent US20130261108A1, “COMPOSITIONS AND METHODS FOR MODULATING FARNESOID X RECEPTORS” (IRM LLC, priority 2010, published 2013).

The target of the experiment is T1, human Farnesoid X Receptor (FXR) ligand binding domain (Homo sapiens, UniProt Q96RI1).
T1 construct: purchased Invitrogen
T1 sequence (Q96RI1 193-472 isoform Q96RI1-2): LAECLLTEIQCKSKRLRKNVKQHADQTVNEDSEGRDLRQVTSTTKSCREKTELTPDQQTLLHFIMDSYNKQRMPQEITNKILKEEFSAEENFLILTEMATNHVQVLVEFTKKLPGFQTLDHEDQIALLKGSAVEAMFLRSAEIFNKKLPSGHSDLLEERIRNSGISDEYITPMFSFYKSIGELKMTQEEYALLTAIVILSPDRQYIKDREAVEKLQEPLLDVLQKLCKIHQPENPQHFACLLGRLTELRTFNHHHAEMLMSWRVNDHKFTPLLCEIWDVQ
Put plainly: Human GST-FXR LBD co-activator interaction assay (FXR HTRF assay). Format: biochemical. The following applies: GST-FXR LBD with biotin-labeled SRC-1 peptide, FRET/HTRF, 2.5 hours at room temperature; response relative to GW4064; read-out: FXR coactivator interaction assay (HTRF) (EC50). From the text: Human GST-FXR LBD Co-Activator Interaction Assay.
The FXR HTRF assay is a biochemical assay measuring the interaction between FXR and a coactivator protein (SRC1). The ligand-induced interaction with a coactivator protein is a critical step in transcriptional activation by FXR. Thus, this is an assay designed to measure FXR agonist activity of compounds.
The ligand-dependent interaction between GST-FXR LBD and a peptide derived from Steroid Receptor Coactivator-1 (SRC-1) was monitored by Fluorescence Resonance Energy Transfer (FRET). […] Test compounds (in DMSO solution) and detection reagents (anti-GST-Cryptate labeled antibody and Streptavidin-XL665 conjugate; CisBio) were added in assay buffer containing 50 mM KF. Plates are incubated at room temperature in the dark for 2.5 hours before reading on an Envision (PerkinElmer) at 665 nm and 590 nm.
A negative control (without Streptavidin-XL665) was run with each assay and represented the background fluorescence. A reference FXR agonist, GW4064, was included in each experiment as positive control. The efficacy of each test compound was compared to that of GW4064. At each concentration, the relative activity of the test compound was expressed as Response %=(Rsample−RDMSO)/(Rpositive−RDMSO), where Rsample is the HTRF response (expressed in Delta F %) for the test compound, Rpositive is the maximal response for GW4064 at saturating concentrations, and RDMSO is the response for DMSO control. The EC50 values were calculated using GraphPad Prism (GraphPad Software) using non-linear regression curve fit (log(agonist) vs. response−variable slope (four parameters)).
With `O=C(O)c1ccc2nc(N3CCC(OCc4c(C5CCCCC5C(F)(F)F)noc4C4CC4)CC3)sc2c1` (single isomer, unassigned) [5 (Diastereomer A)], the EC50 is 245 nM.
Next, `O=C(O)c1ccc2nc(N3CCC(OCc4c(C5CCCCC5C(F)(F)F)noc4C4CC4)CC3)sc2c1` (single isomer, unassigned) [5 (Diastereomer B)]: 64 nM; `CCOC(=O)c1ccc2nc(N3CCC(OCc4c(-c5ccccc5OC(F)(F)F)noc4C4CC4)CC3)sc2c1` [Example 1-1A, Ethyl 2-(4-((5-cyclopropyl-3-(2-(trifluoromethoxy)phenyl)isoxazol-4-yl)methoxy)piperidin-1-yl)benzo[d]thiazole-6-carboxylate]: 929 nM.
Next, `COc1cc(C(=O)O)cc2sc(N3CCC(OCc4c(-c5ccccc5OC(F)(F)F)noc4C4CC4)CC3)nc12` [Example 1-2, 2-(4-((5-cyclopropyl-3-(2-(trifluoromethoxy)phenyl)isoxazol-4-yl)methoxy)piperidin-1-yl)-4-methoxybenzo[d]thiazole-6-carboxylic acid]: 12 nM; `O=C(O)c1cc(F)c2nc(N3CCC(OCc4c(-c5ccccc5OC(F)(F)F)noc4C4CC4)CC3)sc2c1` [Example 1-3, 2-(4-((5-cyclopropyl-3-(2-(trifluoromethoxy)phenyl)isoxazol-4-yl)methoxy)piperidin-1-yl)-4-fluorobenzo[d]thiazole-6-carboxylic acid]: 17 nM; `COc1cc(C(=O)O)cc2sc(N3CCC(OCc4c(-c5ccccc5C(F)(F)F)noc4C4CC4)CC3)nc12` [Example 1-4, 2-(4-((5-cyclopropyl-3-(2-(trifluoromethyl)phenyl)isoxazol-4-yl)methoxy)piperidin-1-yl)-4-methoxybenzo[d]thiazole-6-carboxylic acid]: 4 nM.
For `O=C(O)c1ccc2sc(N3CCC(OCc4c(-c5ccccc5OC(F)(F)F)noc4C4CC4)CC3)nc2c1` [Example 2-1, 2-[4-({5-cyclopropyl-3-[2-(trifluoromethoxy)phenyl]-1,2-oxazol-4-yl}methoxy)piperidin-1-yl]1,3-benzothiazole-5-carboxylic acid] the value was 62 nM.
For the compound `CCOC(=O)c1ccc2nc(N3CCC(OCc4c(-c5ccccc5OC(F)(F)F)noc4C4(C)CC4)CC3)sc2c1` [Example 2-2A, ethyl 2-(4-{[5-(1-methylcyclopropyl)-3-[2-(trifluoromethoxy)phenyl]-1,2-oxazol-4-yl]methoxy}piperidin-1-yl)-1,3-benzothiazole-6-carboxylate], the EC50 turned out to be 1180 nM.
For `CC1(c2onc(-c3ccccc3OC(F)(F)F)c2COC2CCN(c3nc4ccc(C(=O)O)cc4s3)CC2)CC1` [Example 2-2B, 2-(4-{[5-(1-methylcyclopropyl)-3-[2-(trifluoromethoxy)phenyl]-1,2-oxazol-4-yl]methoxy}piperidin-1-yl)-1,3-benzothiazole-6-carboxylic acid] the value was 98 nM; for `Cc1cc(C(=O)O)cc2sc(N3CCC(OCc4c(-c5ccccc5OC(F)(F)F)noc4C4CC4)CC3)nc12` [Example 2-3, 2-[4-({5-cyclopropyl-3-[2-(trifluoromethoxy)phenyl]-1,2-oxazol-4-yl}methoxy)piperidin-1-yl]-4-methyl-1,3-benzothiazole-6-carboxylic acid], 24 nM; for `O=C(O)c1cc(OC(F)(F)F)c2nc(N3CCC(OCc4c(-c5ccccc5OC(F)(F)F)noc4C4CC4)CC3)sc2c1` [Example 2-4, 2-[4-({5-cyclopropyl-3-[2-(trifluoromethoxy)phenyl]-1,2-oxazol-4-yl}methoxy)piperidin-1-yl]-4-(trifluoromethoxy)-1,3-benzothiazole-6-carboxylic acid], 5 nM.
For `CCOC(=O)c1ccc2nc(N3CCC(OCc4c(-c5ccccc5C(F)(F)F)noc4C4CC4)CC3)sc2c1` [Example 2-5A, ethyl 2-[4-({5-cyclopropyl-3-[2-(trifluoromethyl)phenyl]-1,2-oxazol-4-yl}methoxy)piperidin-1-yl]-1,3-benzothiazole-6-carboxylate] the value was 761 nM.
For `O=C(O)c1ccc2nc(N3CCC(OCc4c(-c5ccccc5C(F)(F)F)noc4C4CC4)CC3)sc2c1` [Example 2-5B, 2-[4-({5-cyclopropyl-3-[2-(trifluoromethyl)phenyl]-1,2-oxazol-4-yl}methoxy)piperidin-1-yl]-1,3-benzothiazole-6-carboxylic acid] the value was 86 nM; for `CCOC(=O)c1ccc2nc(N3CCC(OCc4c(-c5c(Cl)cccc5C(F)(F)F)noc4C4CC4)CC3)sc2c1` [Example 2-6A, ethyl 2-[4-({3-[2-chloro-6-(trifluoromethyl)phenyl]-5-cyclopropyl-1,2-oxazol-4-yl}methoxy)piperidin-1-yl]-1,3-benzothiazole-6-carboxylate], 396 nM; for `O=C(O)c1ccc2nc(N3CCC(OCc4c(-c5c(Cl)cccc5C(F)(F)F)noc4C4CC4)CC3)sc2c1` [Example 2-6B, 2-[4-({3-[2-chloro-6-(trifluoromethyl)phenyl]-5-cyclopropyl-1,2-oxazol-4-yl}methoxy)piperidin-1-yl]-1,3-benzothiazole-6-carboxylic acid], 198 nM.
`CCOC(=O)c1ccc2nc(N3CCC(OCc4c(-c5c(OC)cccc5C(F)(F)F)noc4C4CC4)CC3)sc2c1` [Example 2-7A, ethyl 2-[4-({5-cyclopropyl-3-[2-methoxy-6-(trifluoromethyl)phenyl]-1,2-oxazol-4-yl}methoxy)piperidin-1-yl]-1,3-benzothiazole-6-carboxylate]: the 50% effective concentration (EC50) was 736 nM.
Next, `COc1cccc(C(F)(F)F)c1-c1noc(C2CC2)c1COC1CCN(c2nc3ccc(C(=O)O)cc3s2)CC1` [Example 2-7B, 2-[4-({5-cyclopropyl-3-[2-methoxy-6-(trifluoromethyl)phenyl]-1,2-oxazol-4-yl}methoxy)piperidin-1-yl]-1,3-benzothiazole-6-carboxylic acid]: 75 nM; `CCOC(=O)c1ccc2nc(N3CCC(OCc4c(-c5ccccc5OC(F)F)noc4C4CC4)CC3)sc2c1` [Example 2-8A, ethyl 2-[4-({5-cyclopropyl-3-[2-(difluoromethoxy)phenyl]-1,2-oxazol-4-yl}methoxy)piperidin-1-yl]-1,3-benzothiazole-6-carboxylate]: 2420 nM.
For `O=C(O)c1ccc2nc(N3CCC(OCc4c(-c5ccccc5OC(F)F)noc4C4CC4)CC3)sc2c1` [Example 2-8B, 2-[4-({5-cyclopropyl-3-[2-(difluoromethoxy)phenyl]-1,2-oxazol-4-yl}methoxy)piperidin-1-yl]-1,3-benzothiazole-6-carboxylic acid] the value was 45 nM.
On to `Cc1cc(C(=O)O)cc2sc(N3CCC(OCc4c(-c5ccccc5OC(F)F)noc4C4CC4)CC3)nc12` [Example 2-9, 2-[4-({5-cyclopropyl-3-[2-(difluoromethoxy)phenyl]-1,2-oxazol-4-yl}methoxy)piperidin-1-yl]-4-methyl-1,3-benzothiazole-6-carboxylic acid], for which the EC50 is 26 nM.
For `O=C(O)c1cc(F)c2nc(N3CCC(OCc4c(-c5ccccc5OC(F)F)noc4C4CC4)CC3)sc2c1` [Example 2-10, 2-[4-({5-cyclopropyl-3-[2-(difluoromethoxy)phenyl]-1,2-oxazol-4-yl}methoxy)piperidin-1-yl]-4-fluoro-1,3-benzothiazole-6-carboxylic acid] the value was 21 nM.
Next, `CCOC(=O)c1ccc2nc(N3CCC(OCc4c(-c5c(F)cccc5Cl)noc4C4CC4)CC3)sc2c1` [Example 2-11A, ethyl 2-(4-{[3-(2-chloro-6-fluorophenyl)-5-cyclopropyl-1,2-oxazol-4-yl]methoxy}piperidin-1-yl)-1,3-benzothiazole-6-carboxylate]: 557 nM.
For `O=C(O)c1ccc2nc(N3CCC(OCc4c(-c5c(F)cccc5Cl)noc4C4CC4)CC3)sc2c1` [Example 2-12B, 2-(4-{[3-(2-chloro-6-fluorophenyl)-5-cyclopropyl-1,2-oxazol-4-yl]methoxy}piperidin-1-yl)-1,3-benzothiazole-6-carboxylic acid] the value was 57 nM.
Take `O=C(O)c1ccc2nc(N3CCC(OCc4c(-c5c(Cl)cccc5Cl)noc4C4CC4)CC3)sc2c1` [Example 2-13, 2-(4-{[5-cyclopropyl-3-(2,6-dichlorophenyl)-1,2-oxazol-4-yl]methoxy}piperidin-1-yl)-1,3-benzothiazole-6-carboxylic acid]: the concentration for a half-maximal effect (EC50) was 10 nM.
